Results: patent publication US9211310B2, “Use of a Chinese medicine composition in preparing medicaments for treating secondary prevention of myocardial infarction” (TASLY PHARMACEUTICAL GROUP CO., LTD, priority 2010, dated 2015)

Test system: patients after acute myocardial infarction
Assay: TCM symptom score, total and single (chest pain, chest tightness, short breath, fatigue, palpitation, spontaneous perspiration, pale complexion), same clinical trial
Type: in vivo, human
Details: for chest pain score 0, number of patients / chest pain score 0, percent of patients / chest pain score 3, number of patients / chest pain score 3, percent of patients / chest pain score 6, number of patients / chest pain score 6, percent of patients / chest pain score 9, number of patients / chest pain score 9, percent of patients / chest tightness score 0, number of patients / chest tightness score 0, percent of patients / chest tightness score 3, number of patients / chest tightness score 3, percent of patients / chest tightness score 6, number of patients / chest tightness score 6, percent of patients / chest tightness score 9, number of patients / chest tightness score 9, percent of patients: 12 months after treatment
Source text: 3508 patients who were in accordance with the diagnostic standards of AMI for 28 days to 2 years and differentiated as Qi deficiency and blood stagnation syndrome by TCM were studied. 0.5 g Chinese medicine composition prepared by the method of EXAMPLE 1 (Coded as QSYQ) was administrated half an hour after meal, 3 times per day.
They included the overall survival time, angina pectoris score, TCM symptom score and life quality score, where angina pectoris score, TCM symptom score and life quality score were evaluated at randomization, in 1st, 3rd, 6th, 9th, 12th month after treatment and 18th month after follow-up.
The analysis method referred to the angina pectoris score.

[1] = 12 months after treatment-baseline, FAS
[2] = 12 months after treatment-baseline, PP
[3] = FAS, 12 months after treatment-treatment

CC(=O)Oc1ccccc1C(=O)O [Control group, aspirine]
change of chest tightness score 9, number of patients [1]: 5
change of chest tightness score 9, percent of patients [1]: (0.29%)
change of chest tightness score −3, number of patients [1]: 83
change of chest tightness score −3, percent of patients [1]: (4.86%)
change of chest tightness score −6, number of patients [1]: 3
change of chest tightness score −6, percent of patients [1]: (0.18%)
change of chest tightness score −9, number of patients [1]: 0
change of chest tightness score −9, percent of patients [1]: (0.00%)
change of chest pain score 0, number of patients [2]: 760
change of chest pain score 0, percent of patients [2]: (54.36%)
change of chest pain score 3, number of patients [2]: 455
change of chest pain score 3, percent of patients [2]: (32.55%)
change of chest pain score 6, number of patients [2]: 131
change of chest pain score 6, percent of patients [2]: (9.37%)
change of chest pain score 9, number of patients [2]: 5
change of chest pain score 9, percent of patients [2]: (0.36%)
change of chest pain score −3, number of patients [2]: 45
change of chest pain score −3, percent of patients [2]: (3.22%)
change of chest pain score −6, number of patients [2]: 2
change of chest pain score −6, percent of patients [2]: (0.14%)
change of chest tightness score 0, number of patients [2]: 721
change of chest tightness score 0, percent of patients [2]: (51.54%)
change of chest tightness score 3, number of patients [2]: 539
change of chest tightness score 3, percent of patients [2]: (38.53%)
change of chest tightness score 6, number of patients [2]: 79
change of chest tightness score 6, percent of patients [2]: (5.65%)
change of chest tightness score 9, number of patients [2]: 4
change of chest tightness score 9, percent of patients [2]: (0.29%)
change of chest tightness score −3, number of patients [2]: 54
change of chest tightness score −3, percent of patients [2]: (3.86%)
change of chest tightness score −6, number of patients [2]: 2
change of chest tightness score −6, percent of patients [2]: (0.14%)
change of chest tightness score −9, number of patients [2]: 0
change of chest tightness score −9, percent of patients [2]: (0.00%)
chest pain score 0, number of patients (FAS): 858
chest pain score 0, percent of patients (FAS): (49.94%)
chest pain score 3, number of patients (FAS): 607
chest pain score 3, percent of patients (FAS): (35.33%)
chest pain score 6, number of patients (FAS): 248
chest pain score 6, percent of patients (FAS): (14.44%)
chest pain score 9, number of patients (FAS): 5
chest pain score 9, percent of patients (FAS): (0.29%)
chest tightness score 0, number of patients (FAS): 858
chest tightness score 0, percent of patients (FAS): (49.94%)
chest tightness score 3, number of patients (FAS): 607
chest tightness score 3, percent of patients (FAS): (35.33%)
chest tightness score 6, number of patients (FAS): 248
chest tightness score 6, percent of patients (FAS): (14.44%)
chest tightness score 9, number of patients (FAS): 5
chest tightness score 9, percent of patients (FAS): (0.29%)
chest pain score 0, number of patients (PP): 725
chest pain score 0, percent of patients (PP): (51.67%)
chest pain score 3, number of patients (PP): 501
chest pain score 3, percent of patients (PP): (35.71%)
chest pain score 6, number of patients (PP): 176
chest pain score 6, percent of patients (PP): (12.54%)
chest pain score 9, number of patients (PP): 1
chest pain score 9, percent of patients (PP): (0.07%)
chest tightness score 0, number of patients (PP): 725
chest tightness score 0, percent of patients (PP): (51.67%)
chest tightness score 3, number of patients (PP): 501
chest tightness score 3, percent of patients (PP): (35.71%)
chest tightness score 6, number of patients (PP): 176
chest tightness score 6, percent of patients (PP): (12.54%)
chest tightness score 9, number of patients (PP): 1
chest tightness score 9, percent of patients (PP): (0.07%)
change of short breath 0, % of patients [3]: (55.85%)
change of short breath 2, % of patients [3]: (32.92%)
change of short breath 2, number of patients [3]: 563
change of short breath 4, % of patients [3]: (4.09%)
change of short breath 4, number of patients [3]: 70
change of short breath 6, % of patients [3]: (0.70%)
change of short breath 6, number of patients [3]: 12
change of short breath −2, % of patients [3]: (6.32%)
change of short breath −2, number of patients [3]: 108
change of short breath −4, % of patients [3]: (0.12%)
change of short breath −4, number of patients [3]: 2
distribution of total score of TCM symptom: Medium, number of patients (FAS, 1 month after treatment): 675
distribution of total score of TCM symptom: Medium, percentage of patients (FAS, 1 month after treatment): (40.11%)
distribution of total score of TCM symptom: Mild, number of patients (FAS, 1 month after treatment): 989
distribution of total score of TCM symptom: Mild, percentage of patients (FAS, 1 month after treatment): (58.76%)
distribution of total score of TCM symptom: Severe, number of patients (FAS, 1 month after treatment): 19
distribution of total score of TCM symptom: Severe, percentage of patients (FAS, 1 month after treatment): (1.13%)
fatigue score 0, % of patients (FAS, 1 month after treatment): (24.05%)
fatigue score 0, number of patients (FAS, 1 month after treatment): 413
fatigue score 2, % of patients (FAS, 1 month after treatment): (60.75%)
fatigue score 2, number of patients (FAS, 1 month after treatment): 1043
fatigue score 4, % of patients (FAS, 1 month after treatment): (13.86%)
fatigue score 4, number of patients (FAS, 1 month after treatment): 238
fatigue score 6, % of patients (FAS, 1 month after treatment): (1.34%)
fatigue score 6, number of patients (FAS, 1 month after treatment): 23
pale complexion score 0, number of patients (FAS, 1 month after treatment): 713
pale complexion score 0, percent of patients (FAS, 1 month after treatment): (41.53%)
pale complexion score 1, number of patients (FAS, 1 month after treatment): 726
pale complexion score 1, percent of patients (FAS, 1 month after treatment): (42.28%)
pale complexion score 2, number of patients (FAS, 1 month after treatment): 245
pale complexion score 2, percent of patients (FAS, 1 month after treatment): (14.27%)
pale complexion score 3, number of patients (FAS, 1 month after treatment): 33
pale complexion score 3, percent of patients (FAS, 1 month after treatment): (1.92%)
palpitation score 0, number of patients (FAS, 1 month after treatment): 427
palpitation score 0, percent of patients (FAS, 1 month after treatment): (24.87%)
palpitation score 1, number of patients (FAS, 1 month after treatment): 1
palpitation score 1, percent of patients (FAS, 1 month after treatment): (0.06%)
palpitation score 2, number of patients (FAS, 1 month after treatment): 834
palpitation score 2, percent of patients (FAS, 1 month after treatment): (48.57%)
palpitation score 4, number of patients (FAS, 1 month after treatment): 398
palpitation score 4, percent of patients (FAS, 1 month after treatment): (23.18%)
palpitation score 6, number of patients (FAS, 1 month after treatment): 57
palpitation score 6, percent of patients (FAS, 1 month after treatment): (3.32%)
short breath score 0, % of patients (FAS, 1 month after treatment): (21.14%)
short breath score 0, number of patients (FAS, 1 month after treatment): 363
short breath score 3, % of patients (FAS, 1 month after treatment): (54.22%)
short breath score 3, number of patients (FAS, 1 month after treatment): 931
short breath score 6, % of patients (FAS, 1 month after treatment): (23.88%)
short breath score 6, number of patients (FAS, 1 month after treatment): 410
short breath score 9, % of patients (FAS, 1 month after treatment): (0.76%)
short breath score 9, number of patients (FAS, 1 month after treatment): 13
spontaneous perspiration score 0, number of patients (FAS, 1 month after treatment): 603
spontaneous perspiration score 0, percent of patients (FAS, 1 month after treatment): (35.12%)
spontaneous perspiration score 1, number of patients (FAS, 1 month after treatment): 879
spontaneous perspiration score 1, percent of patients (FAS, 1 month after treatment): (51.19%)
spontaneous perspiration score 2, number of patients (FAS, 1 month after treatment): 215
spontaneous perspiration score 2, percent of patients (FAS, 1 month after treatment): (12.52%)
spontaneous perspiration score 3, number of patients (FAS, 1 month after treatment): 20
